In ChEMBL document CHEMBL5137043, “trans, trans-2-C-Aryl-3,4-dihydroxypyrrolidines as potent and selective β-glucosidase inhibitors: Pharmacological chaperones for Gaucher disease” (Eur J Med Chem, 2022):

Assays:
[1] = molecular target: T1, Lysosomal acid glucosylceramidase (Homo sapiens, UniProt P04062); assay: Inhibition of human GCase
T1 sequence (P04062 whole entry): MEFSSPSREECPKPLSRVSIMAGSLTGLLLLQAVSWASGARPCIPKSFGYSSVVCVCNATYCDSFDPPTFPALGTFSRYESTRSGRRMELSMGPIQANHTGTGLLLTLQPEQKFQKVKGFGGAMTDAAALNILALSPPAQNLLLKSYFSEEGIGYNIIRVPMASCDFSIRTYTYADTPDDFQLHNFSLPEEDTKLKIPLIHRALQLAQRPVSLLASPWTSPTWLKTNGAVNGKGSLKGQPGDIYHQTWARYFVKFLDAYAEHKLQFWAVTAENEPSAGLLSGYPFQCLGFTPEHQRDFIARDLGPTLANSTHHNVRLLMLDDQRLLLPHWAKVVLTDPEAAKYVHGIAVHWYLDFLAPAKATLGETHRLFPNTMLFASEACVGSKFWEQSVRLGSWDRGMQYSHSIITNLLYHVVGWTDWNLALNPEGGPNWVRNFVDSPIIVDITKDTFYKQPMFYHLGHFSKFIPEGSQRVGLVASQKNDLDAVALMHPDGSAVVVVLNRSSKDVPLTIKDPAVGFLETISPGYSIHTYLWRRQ

Bos taurus [2] = species on record: Bos taurus; assay: Inhibition of bovine liver beta-glucuronidase assessed as reduction of p-nitrophenol release using p-nitrophenyl-glycoside as substrate at 1000 uM by spectrophotometric analysis
[3] = Inhibition of rice alpha-glucosidase assessed as reduction of p-nitrophenol release using p-nitrophenyl-glycoside as substrate by spectrophotometric analysis; design: species or system Oryza sativa
Prunus dulcis = assay: Inhibition of almond beta-glucosidase assessed as reduction of p-nitrophenol release using p-nitrophenyl-glycoside as substrate at 1000 uM by spectrophotometric analysis
[4] = molecular target: Lysosomal alpha-glucosidase (Rattus norvegicus) (UniProt Q6P7A9); assay: Inhibition of rat small intestinal maltase assessed as reduction of D-glucose release using maltose as substrate at 1000 uM by colorimetric analysis; type: tissue-based; conditions: Small intestine
Chain of Lysosomal alpha-glucosidase (Rattus norvegicus) (Q6P7A9 whole entry): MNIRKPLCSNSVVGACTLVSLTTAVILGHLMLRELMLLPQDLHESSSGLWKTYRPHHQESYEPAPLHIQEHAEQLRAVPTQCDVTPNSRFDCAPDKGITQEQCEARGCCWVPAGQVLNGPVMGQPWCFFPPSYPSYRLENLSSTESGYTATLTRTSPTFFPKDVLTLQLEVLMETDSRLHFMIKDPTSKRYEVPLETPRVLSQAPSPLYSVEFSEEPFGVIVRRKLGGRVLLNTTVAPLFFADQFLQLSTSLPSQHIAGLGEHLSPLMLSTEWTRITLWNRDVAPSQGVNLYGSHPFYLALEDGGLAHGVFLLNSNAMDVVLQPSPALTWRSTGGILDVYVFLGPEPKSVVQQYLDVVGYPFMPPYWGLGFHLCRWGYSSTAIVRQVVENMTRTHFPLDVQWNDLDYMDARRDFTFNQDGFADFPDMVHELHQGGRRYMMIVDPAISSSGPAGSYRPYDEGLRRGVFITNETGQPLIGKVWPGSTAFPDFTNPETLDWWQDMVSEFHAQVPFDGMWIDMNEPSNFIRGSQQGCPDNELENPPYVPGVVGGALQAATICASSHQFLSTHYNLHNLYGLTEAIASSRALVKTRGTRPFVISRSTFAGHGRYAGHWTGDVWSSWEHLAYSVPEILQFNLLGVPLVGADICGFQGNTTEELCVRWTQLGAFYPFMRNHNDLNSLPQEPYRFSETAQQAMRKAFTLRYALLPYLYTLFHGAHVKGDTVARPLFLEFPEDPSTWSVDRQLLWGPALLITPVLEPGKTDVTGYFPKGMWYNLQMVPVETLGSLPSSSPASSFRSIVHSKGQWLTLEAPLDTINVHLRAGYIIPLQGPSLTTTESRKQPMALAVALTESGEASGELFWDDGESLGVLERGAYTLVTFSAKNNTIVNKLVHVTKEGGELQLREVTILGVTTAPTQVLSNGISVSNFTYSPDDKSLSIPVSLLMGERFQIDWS

[5] = molecular target: Sucrase-isomaltase, intestinal (Rattus norvegicus) (UniProt P23739); assay: Inhibition of rat small intestinal sucrase assessed as reduction of p-nitrophenol release using p-nitrophenyl-glycoside as substrate at 1000 uM by spectrophotometric analysis; type: tissue-based; conditions: Small intestine
Chain of Sucrase-isomaltase, intestinal (Rattus norvegicus) (P23739 1-1013 limits assumed): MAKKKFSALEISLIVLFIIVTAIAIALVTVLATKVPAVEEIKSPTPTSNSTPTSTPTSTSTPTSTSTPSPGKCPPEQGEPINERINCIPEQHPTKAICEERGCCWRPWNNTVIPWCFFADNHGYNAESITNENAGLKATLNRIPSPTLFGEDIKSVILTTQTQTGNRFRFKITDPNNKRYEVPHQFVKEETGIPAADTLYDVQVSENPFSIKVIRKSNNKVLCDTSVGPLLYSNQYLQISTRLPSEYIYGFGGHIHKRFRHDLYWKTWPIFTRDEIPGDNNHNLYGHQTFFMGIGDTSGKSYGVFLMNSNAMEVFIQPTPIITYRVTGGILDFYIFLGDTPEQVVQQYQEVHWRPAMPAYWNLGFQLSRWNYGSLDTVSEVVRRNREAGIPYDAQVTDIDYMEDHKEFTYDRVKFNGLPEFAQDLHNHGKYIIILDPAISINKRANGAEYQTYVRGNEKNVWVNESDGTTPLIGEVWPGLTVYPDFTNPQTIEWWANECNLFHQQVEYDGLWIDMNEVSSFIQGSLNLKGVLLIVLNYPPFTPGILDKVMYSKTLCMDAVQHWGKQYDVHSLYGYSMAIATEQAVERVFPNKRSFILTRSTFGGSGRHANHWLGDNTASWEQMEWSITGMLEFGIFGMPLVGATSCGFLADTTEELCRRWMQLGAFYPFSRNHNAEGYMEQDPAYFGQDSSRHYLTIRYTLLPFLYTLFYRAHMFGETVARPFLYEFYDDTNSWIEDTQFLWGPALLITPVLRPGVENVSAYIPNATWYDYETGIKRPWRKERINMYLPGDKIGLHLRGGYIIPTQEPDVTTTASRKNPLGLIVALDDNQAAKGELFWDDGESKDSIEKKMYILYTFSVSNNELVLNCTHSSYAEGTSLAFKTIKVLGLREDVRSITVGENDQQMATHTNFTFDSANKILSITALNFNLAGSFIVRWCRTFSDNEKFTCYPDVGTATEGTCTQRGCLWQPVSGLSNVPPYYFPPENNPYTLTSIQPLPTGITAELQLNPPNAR
Chain of Sucrase-isomaltase, intestinal (Rattus norvegicus) (P23739 1014-1841 limits assumed): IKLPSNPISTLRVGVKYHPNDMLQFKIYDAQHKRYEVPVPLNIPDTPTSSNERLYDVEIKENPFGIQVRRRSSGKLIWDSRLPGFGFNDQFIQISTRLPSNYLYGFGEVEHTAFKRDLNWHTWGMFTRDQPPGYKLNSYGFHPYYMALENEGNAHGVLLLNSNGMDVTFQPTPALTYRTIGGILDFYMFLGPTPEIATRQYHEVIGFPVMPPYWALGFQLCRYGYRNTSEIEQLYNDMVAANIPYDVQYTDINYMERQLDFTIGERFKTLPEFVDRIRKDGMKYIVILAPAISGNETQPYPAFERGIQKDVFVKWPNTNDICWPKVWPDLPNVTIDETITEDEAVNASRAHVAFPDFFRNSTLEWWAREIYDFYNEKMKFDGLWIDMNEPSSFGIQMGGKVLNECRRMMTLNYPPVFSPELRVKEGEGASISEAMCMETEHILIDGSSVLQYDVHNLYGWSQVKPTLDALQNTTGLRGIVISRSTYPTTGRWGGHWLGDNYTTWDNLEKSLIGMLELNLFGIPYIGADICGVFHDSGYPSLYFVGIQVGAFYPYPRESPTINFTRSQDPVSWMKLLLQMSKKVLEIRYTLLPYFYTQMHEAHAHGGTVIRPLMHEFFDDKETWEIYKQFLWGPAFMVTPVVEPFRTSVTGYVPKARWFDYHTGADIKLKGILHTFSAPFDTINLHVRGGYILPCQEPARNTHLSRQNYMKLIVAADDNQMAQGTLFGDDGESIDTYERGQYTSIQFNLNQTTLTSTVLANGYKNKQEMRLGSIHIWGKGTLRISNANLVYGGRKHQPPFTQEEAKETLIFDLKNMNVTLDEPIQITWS

Saccharomyces cerevisiae = assay: Inhibition of yeast alpha-glucosidase assessed as reduction of p-nitrophenol release using p-nitrophenyl-glycoside as substrate at 1000 uM by spectrophotometric analysis
[6] = Inhibition of human lysosomal beta-glucosidase assessed as reduction of p-nitrophenol release using p-nitrophenyl-glycoside as substrate by spectrophotometric analysis; type: subcellular, Lysosome
[7] = Inhibition of bovine liver beta-galactosidase assessed as reduction of p-nitrophenol release using p-nitrophenyl-glycoside as substrate by spectrophotometric analysis; design: species or system Bos taurus
Sus scrofa = species on record: Sus scrofa; assay: Inhibition of porcine kidney alpha-trehalase assessed as reduction of p-nitrophenol release using p-nitrophenyl-glycoside as substrate at 1000 uM by spectrophotometric analysis; type: tissue-based
Helix pomatia = assay: Inhibition of snail beta-mannosidase assessed as reduction of p-nitrophenol release using p-nitrophenyl-glycoside as substrate at 1000 uM by spectrophotometric analysis
[8] = molecular target: Alpha-galactosidase (Coffea arabica) (UniProt Q42656); assay: Inhibition of coffee beans alpha-galactosidase assessed as reduction of p-nitrophenol release using p-nitrophenyl-glycoside as substrate at 1000 uM by spectrophotometric analysis
Chain of Alpha-galactosidase (Coffea arabica) (Q42656 16-378 limits assumed): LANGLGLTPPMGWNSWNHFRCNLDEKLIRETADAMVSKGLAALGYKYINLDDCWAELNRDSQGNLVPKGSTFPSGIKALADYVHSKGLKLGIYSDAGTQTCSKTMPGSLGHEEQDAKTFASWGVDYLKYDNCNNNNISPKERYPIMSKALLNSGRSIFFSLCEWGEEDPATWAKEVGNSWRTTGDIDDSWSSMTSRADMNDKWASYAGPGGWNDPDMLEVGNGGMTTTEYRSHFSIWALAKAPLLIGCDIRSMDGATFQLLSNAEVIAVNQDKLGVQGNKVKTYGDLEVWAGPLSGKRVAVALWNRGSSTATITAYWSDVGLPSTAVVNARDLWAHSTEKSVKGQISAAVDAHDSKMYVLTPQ

Penicillium decumbens = assay: Inhibition of Penicillium decumbens alpha-L-rhamnosidase assessed as reduction of p-nitrophenol release using p-nitrophenyl-glycoside as substrate at 1000 uM by spectrophotometric analysis
[9] = molecular target: T2, Alpha-mannosidase (Canavalia ensiformis) (UniProt C0HJB3); assay: Inhibition of jack bean alpha-mannosidase assessed as reduction of p-nitrophenol release using p-nitrophenyl-glycoside as substrate at 1000 uM by spectrophotometric analysis
T2 sequence (whole entry): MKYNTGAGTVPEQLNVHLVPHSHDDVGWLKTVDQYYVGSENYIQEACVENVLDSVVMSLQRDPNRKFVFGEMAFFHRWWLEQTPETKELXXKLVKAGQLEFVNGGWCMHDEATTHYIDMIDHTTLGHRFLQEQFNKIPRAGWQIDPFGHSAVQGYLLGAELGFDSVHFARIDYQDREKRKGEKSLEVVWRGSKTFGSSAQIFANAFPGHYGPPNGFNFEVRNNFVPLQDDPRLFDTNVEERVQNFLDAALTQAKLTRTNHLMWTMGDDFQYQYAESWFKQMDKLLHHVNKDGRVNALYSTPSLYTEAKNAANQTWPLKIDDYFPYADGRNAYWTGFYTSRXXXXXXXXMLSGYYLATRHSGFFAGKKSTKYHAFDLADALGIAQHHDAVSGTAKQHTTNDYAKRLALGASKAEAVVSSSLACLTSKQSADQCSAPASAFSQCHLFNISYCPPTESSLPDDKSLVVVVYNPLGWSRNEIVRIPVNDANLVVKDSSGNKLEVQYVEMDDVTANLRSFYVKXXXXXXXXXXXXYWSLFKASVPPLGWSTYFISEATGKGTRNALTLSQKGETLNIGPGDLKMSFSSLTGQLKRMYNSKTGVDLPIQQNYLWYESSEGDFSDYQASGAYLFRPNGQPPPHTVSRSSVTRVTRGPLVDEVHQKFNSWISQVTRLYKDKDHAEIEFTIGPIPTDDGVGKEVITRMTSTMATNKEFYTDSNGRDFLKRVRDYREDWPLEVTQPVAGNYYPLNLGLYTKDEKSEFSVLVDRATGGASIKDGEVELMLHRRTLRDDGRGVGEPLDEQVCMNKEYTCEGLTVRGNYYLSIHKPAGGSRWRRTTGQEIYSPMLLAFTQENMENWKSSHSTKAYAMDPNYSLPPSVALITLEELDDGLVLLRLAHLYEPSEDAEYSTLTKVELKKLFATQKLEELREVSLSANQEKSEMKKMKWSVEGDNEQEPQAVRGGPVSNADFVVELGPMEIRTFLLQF

Aspergillus niger = assay: Inhibition of Aspergillus niger amyloglucosidase assessed as reduction of p-nitrophenol release using p-nitrophenyl-glycoside as substrate at 1000 uM by spectrophotometric analysis
Escherichia coli = assay: Inhibition of Escherichia coli beta-glucuronidase assessed as reduction of p-nitrophenol release using p-nitrophenyl-glycoside as substrate at 1000 uM by spectrophotometric analysis
Bos taurus [10] = species on record: Bos taurus; assay: Inhibition of bovine liver beta-glucosidase assessed as reduction of p-nitrophenol release using p-nitrophenyl-glycoside as substrate at 1000 uM by spectrophotometric analysis
[11] = molecular target: T3, Tissue alpha-L-fucosidase (Bos taurus) (UniProt Q2KIM0); assay: Inhibition of bovine kidney alpha-L-fucosidase assessed as reduction of p-nitrophenol release using p-nitrophenyl-glycoside as substrate at 1000 uM by spectrophotometric analysis; type: tissue-based
T3 sequence (whole entry): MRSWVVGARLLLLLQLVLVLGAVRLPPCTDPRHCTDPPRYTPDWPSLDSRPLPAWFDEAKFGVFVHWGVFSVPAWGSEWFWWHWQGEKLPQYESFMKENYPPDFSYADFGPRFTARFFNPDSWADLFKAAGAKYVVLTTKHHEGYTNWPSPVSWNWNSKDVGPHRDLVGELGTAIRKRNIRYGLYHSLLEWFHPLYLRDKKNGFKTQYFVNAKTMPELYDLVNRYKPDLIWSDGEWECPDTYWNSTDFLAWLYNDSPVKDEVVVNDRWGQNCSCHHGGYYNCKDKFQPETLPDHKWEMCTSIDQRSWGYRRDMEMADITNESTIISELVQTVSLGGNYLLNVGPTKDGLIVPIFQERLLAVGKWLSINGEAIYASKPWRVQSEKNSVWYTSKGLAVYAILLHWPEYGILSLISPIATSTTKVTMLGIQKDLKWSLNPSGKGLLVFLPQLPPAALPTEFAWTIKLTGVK

[12] = molecular target: Lysosomal alpha-glucosidase (Homo sapiens) (UniProt P10253); assay: Inhibition of human lysosomal alpha-glucosidase assessed as reduction of p-nitrophenol release using p-nitrophenyl-glycoside as substrate at 1000 uM by spectrophotometric analysis; conditions: Lysosome
[13] = Inhibition of almond beta-glucosidase assessed as reduction of p-nitrophenol release using p-nitrophenyl-glycoside as substrate by spectrophotometric analysis; design: species or system Prunus dulcis
[14] = Inhibition of Escherichia coli beta-glucuronidase assessed as reduction of p-nitrophenol release using p-nitrophenyl-glycoside as substrate by spectrophotometric analysis
Oryza sativa = assay: Inhibition of rice alpha-glucosidase assessed as reduction of p-nitrophenol release using p-nitrophenyl-glycoside as substrate at 1000 uM by spectrophotometric analysis
Homo sapiens = species on record: Homo sapiens; assay: Inhibition of human lysosomal beta-glucosidase assessed as reduction of p-nitrophenol release using p-nitrophenyl-glycoside as substrate at 1000 uM by spectrophotometric analysis; type: subcellular; conditions: Lysosome
[15] = Inhibition of porcine kidney alpha-trehalase assessed as reduction of p-nitrophenol release using p-nitrophenyl-glycoside as substrate by spectrophotometric analysis; type: tissue-based, Sus scrofa
Bos taurus [16] = species on record: Bos taurus; assay: Inhibition of bovine liver beta-galactosidase assessed as reduction of p-nitrophenol release using p-nitrophenyl-glycoside as substrate at 1000 uM by spectrophotometric analysis
[17] = Inhibition of yeast alpha-glucosidase assessed as reduction of p-nitrophenol release using p-nitrophenyl-glycoside as substrate by spectrophotometric analysis; design: species or system Saccharomyces cerevisiae
[18] = molecular target: Sucrase-isomaltase, intestinal (Rattus norvegicus, UniProt P23739); assay: Inhibition of rat small intestinal sucrase assessed as reduction of p-nitrophenol release using p-nitrophenyl-glycoside as substrate by spectrophotometric analysis; type: tissue-based, Small intestine
Chain of Sucrase-isomaltase, intestinal (P23739 1-1013 limits assumed): as the sequence (P23739 1-1013 limits assumed) above
Chain of Sucrase-isomaltase, intestinal (P23739 1014-1841 limits assumed): as the sequence (P23739 1014-1841 limits assumed) above

[19] = molecular target: T1, Lysosomal acid glucosylceramidase; assay: Inhibition of human GCase assessed as reduction of 4-methylumbelliferone liberation using 4-methylumbelliferyl-beta-glucopyranoside as substrate preincubated with enzyme for 10 mins followed by substrate addition by fluorescence spectrophotometry
[20] = Inhibition of bovine liver beta-glucosidase assessed as reduction of p-nitrophenol release using p-nitrophenyl-glycoside as substrate by spectrophotometric analysis; type: tissue-based, Bos taurus

Structure (SMILES)	IC50 [1] [µM]	inhibition (Bos taurus [2]) [%]	inhibition [4] [%]	inhibition (Saccharomyces cerevisiae) [%]	IC50 [6] [µM]	IC50 [7] [µM]	inhibition (Sus scrofa) [%]	inhibition (Helix pomatia) [%]	inhibition [8] [%]	inhibition (Penicillium decumbens) [%]	inhibition [9] [%]	inhibition (Aspergillus niger) [%]	inhibition (Bos taurus [10]) [%]	inhibition [11] [%]	inhibition [12] [%]	IC50 [13] [µM]	IC50 [14] [µM]	inhibition (Oryza sativa) [%]	other results
OC[C@@H]1NCC(O)C1O (single isomer, unassigned)		6.3						0.5	3.9	1.3	0	25.6	4.6	13.3					inhibition (Homo sapiens): 16.1%; IC50 [3]: 1.9 µM; inhibition (Prunus dulcis): 32.6%; IC50 [15]: 161 µM; inhibition (Escherichia coli): 8%; inhibition (Bos taurus [16]): 8.3%; IC50 [17]: 163 µM
O[C@H]1[C@H](O)CN[C@@H]1CCCc1ccccc1		0.3		28.5	3.1	578	5.3	5.6	0	8.3	20.6	0	42.1	6.2	26.5	565	910	38	IC50 [18]: 264 µM
CCCCCCO[C@H]1CNC[C@@H](O)[C@@H]1O	0.009																		
CCCCN1C[C@H](CO)[C@@H](O)[C@H](O)C1																			IC50 [19]: 44 µM
CCCCCCCCCC1NC[C@@H](O)[C@H](O)[C@H]1O (stereo not given in full)	0.0068																		

Further lines, with some results ahead:

IC50 [1] [µM]	inhibition (Bos taurus [2]) [%]	inhibition [4] [%]	inhibition (Saccharomyces cerevisiae) [%]	IC50 [6] [µM]	IC50 [7] [µM]	inhibition (Sus scrofa) [%]	inhibition (Helix pomatia) [%]	inhibition [8] [%]	inhibition (Penicillium decumbens) [%]	inhibition [9] [%]	inhibition (Aspergillus niger) [%]	inhibition (Bos taurus [10]) [%]	inhibition [11] [%]	inhibition [12] [%]	IC50 [13] [µM]	IC50 [14] [µM]	inhibition (Oryza sativa) [%]	Structure (SMILES)	other results
26.5																		O[C@@H]1[C@@H](O)CN[C@H]1c1ccccc1	
	15	12.4	0.3	11	441	6.1	10.1	8.6	0.5	8.3	2	43.7	0	29				O[C@H]1[C@H](O)CN[C@@H]1c1ccccc1	IC50 [3]: 466 µM; inhibition (Prunus dulcis): 3.9%; inhibition [5]: 39.9%; inhibition (Escherichia coli): 20.3%
	2.3	15.8	10.1	0.76	328	13.1	9.7	0	0	0	0	39.9	0	2.9	285	281	19	O[C@H]1[C@H](O)CN[C@@H]1c1ccc(-c2ccccc2)cc1	inhibition [5]: 47.4%
	4.2	28.8	4.7	1.2	83	1.6	14.9	0.3	6.4	0	0		0	15.6	234	418	10.3	O[C@@H]1[C@@H](O)CN[C@H]1c1ccc(-c2ccccc2)cc1	IC50 [18]: 580 µM; IC50 [20]: 458 µM
